Assay results taken from US11054422B2, “Circulating astrocytes and MFSD2A as biomarkers” (priority 2017, dated 2021).

How the values were obtained:
[1] = biological target: T1, α7 nAChR (Mus musculus, UniProt P49582); experiment: Memantine effect on E. coli K1 (E44)-induced cAstr/cBMEC shedding in neonatal mice; format: in vivo; details: neonatal (10 day-old) mice intraperitoneally injected with E44 and treated with MEM, P<0.001
T1 construct: endogenous in cells; host or cells: live neonatal (10 day-old) mice, in vivo; C57BL/6J is the strain stated for the animal experiments in general
Text: (§1) Then the suspensions were collected and centrifuged.
As α7 nAChR plays an important role in CNS Inflammation induced by microbial and non-microbial factors, we have proposed that turnover and shedding of astrocytes and BMECs could be regulated by α7 nAChR. To test this hypothesis, the correlation of α7 nAChR with cAstr/cBMEC shedding and CNS inflammation induced by meningitic E. coli K1 (E44) was examined an α7 nAChR antagonist memantine (MEM) described in the experimental methods herein. In this study, neonatal (10 day-old) mice were intraperitoneally injected with E44 and treated with MEM.

[2] = tested on: cAstr and cBMECs; experiment: cAstr and cBMEC density in peripheral blood of mice treated with gp120 and METH; format: in vivo, mouse; details: vs controls without treatment (CON)
Text: as §1

[3] = tested on: BBB; experiment: Blood cell biomarkers, serum markers and BBB extravasation in mice treated with nicotine, METH and gp120; details: for Evans blue and albumin extravasation into the brain / blood levels of CD133+/CD146+ endothelial PCs (EPCs) / blood levels of circulating Astrocytes (cAstr) / blood levels of circulating BMECs (cBMECs), CD146+/S100B+: treated mice
Procedure: Nicotine tartrate (NT) and methamphetamine (METH) were purchased from Sigma-Aldrich (St. Louis, Mo.). Dynabeads® M-450 Tosylactivated was obtained from Invitrogen (Carlsbad, Calif.) and utilized for magnetic bead extraction. Ulexeuropaeus 1 (UEA I) lectin and mounting medium with 4′,6-diamidino-2-phenylindole (DAPI) were purchased from Vector (Buringame, Calif.). HIV-1 gp120 was purchased from Immunodiagnostics (Woburn, Mass.). Serum levels of molecular markers were determined by ELISA using antibodies and antigens from Creative Biomart (New York, N.Y.) (S100B) and ProteinTech (Chicago, Ill.) (ubiquitin C-terminal hydrolase 1, UCHL1). The Mfsd 2a antibody was purchased from Santa Cruz Biotechnology, Inc. (Dallas, TEXAS). All primary antibodies (Ab) were purchased from the commercial sources: a rabbit anti-α7 nAChR Ab from Genescript (Piscataway, N.J.); a rat anti-mouse Ly-6G (Gr-I) Ab; a mouse anti-CD44 Ab (sc-7297), a rabbit anti-actin (sc-7210), and a rabbit anti-GLUT1 Ab from Santa Cruz Biotechnology (Santa Cruz, Calif.); a rat anti-mouse Ly-6G (Gr-I) Ab FITC-conjugated and an anti-mouse CD146 Ab FITC-conjugated from eBiosciences (San Diego, Calif.), a rabbit anti-SIOOB Ab rhodamine-conjugated from BD Biosciences, and a rabbit anti-CD133 Ab rhodamine-conjugated from Abbiotec (San Diego, Calif.). Transwell filters (3 μm pore size, 6.5 mm diameter), blood plates and CBA assay kit were purchased from BD Biosciences (San Jose, Calif.). Chemicals were purchased from Sigma-Aldrich (St. Louis, Mo.) unless otherwise noted.
Mouse cBMECs were isolated with UIexeuropaeus 1 (UEA 1) lectin-coated Dynabeads as known by one of ordinary skill in the art. The beads were prepared according to the manufacturer's instructions (Invitrogen) and re-suspended in Hanks' balanced salt solution (HBSS. Invitrogen Corp., Carlsbad, Calif., USA) plus 5% fetal calf serum (HBSS+5% FCS) to a final concentration of 4×10^8 beads/mi. Mouse cBMECs in whole blood were affinity captured at 4TC with UEA UEA-1 coated Dynabeads. To eliminate non-specific cell binding to the beads, the cell suspensions were flushed through the pipette tip during the washing steps and then suspended in PBS by using a magnetic particle concentrator (MPC). The bound cells were incubated with 0.5M fucose for 10 min at room temperature to release the beads from target cells. The beads were then washed 5 times with HBSS+5% FBS and collected with the MPC. Then the suspensions were collected and centrifuged. The pellet was collected and affinity captured at 4-C with Msd2a-precoated Dynabeads. After blocking and washing, the cells conjugated to the beads were fixed with 2% paraformaldehyde and 0.25% glutaradehyde for 30 minutes. Then the FITC-conjugated CD146 antibody (BMECs specific marker, used for cBMEC identification) was added and incubated with the beads-bound cells overnight (dark). At last, DAPI was added and incubated with the beads-bound cells for 30 min. The cells (10 ul) were transferred to the cell counter, and counted under a florescence microscope.
Mouse astrocytes were isolated with Concanavalin A (ConA)-coated magnetic beads as known by one of ordinary skill in the art. Dynabeads™ beads were prepared according to the manufacturer's instructions (Invitrogen) and re-suspended in Hanks' balanced salt solution (HBSS, Invitrogen Corp., Carlsbad, Calif., USA) plus 5% fetal calf serum (HBSS+5% FCS) to a final concentration of 4×10^8 beads/ml. Mouse astrocytes in whole blood were affinity captured at 4° C. with ConA coated Dynabeads™. To eliminate non-specific cell binding to the beads, the cell suspensions were flushed through the pipette tip during the washing steps and then suspended in PBS by using a magnetic particle concentrator (MPC). The bound cells were incubated with 0.5M fucose for 10 min at room temperature to release the beads from target cells. The beads were then washed 5 times with HBSS+5% FBS and collected with the MPC. Then the suspensions were collected and centrifuged. […]

T1 sequence (P49582 23-502): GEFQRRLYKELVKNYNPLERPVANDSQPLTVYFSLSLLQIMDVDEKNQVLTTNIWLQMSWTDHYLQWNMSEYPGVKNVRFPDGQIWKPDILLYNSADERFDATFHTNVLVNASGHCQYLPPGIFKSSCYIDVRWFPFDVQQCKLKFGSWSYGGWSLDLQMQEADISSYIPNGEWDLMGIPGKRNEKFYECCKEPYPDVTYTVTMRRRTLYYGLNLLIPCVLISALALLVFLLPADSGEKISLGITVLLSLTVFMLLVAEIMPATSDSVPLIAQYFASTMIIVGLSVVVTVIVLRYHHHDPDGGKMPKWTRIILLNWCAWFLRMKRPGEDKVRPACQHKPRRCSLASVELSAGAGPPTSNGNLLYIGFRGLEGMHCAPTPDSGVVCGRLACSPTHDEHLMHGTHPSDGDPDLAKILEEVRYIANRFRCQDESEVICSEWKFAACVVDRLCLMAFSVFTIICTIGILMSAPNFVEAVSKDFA

Compound	shedding of cAstr (blood level) [1]	shedding of cBMECs (blood level) [1]	shedding of cAstr (blood level) ([1]; listed as memantine)	shedding of cBMECs (blood level) ([1]; listed as memantine)	Astr (cAstr) shedding ([2]; FIG. 6A)	cBMEC shedding ([2]; FIG. 6B)	Evans blue and albumin extravasation into the brain [3]	blood levels of CD133+/CD146+ endothelial PCs (EPCs) [3]	blood levels of circulating Astrocytes (cAstr) [3]	blood levels of circulating BMECs (cBMECs), CD146+/S100B+ [3]	serum levels of S100B ([3]; mice, ELISA)	serum levels of ubiquitin C-terminal hydrolase 1 ([3]; mice, ELISA)
CC12CC3CC(C)(C1)CC(N)(C3)C2 [MEM, memantine]	significantly block	significantly block	reduce	reduce								
CN[C@@H](C)Cc1ccccc1 [METH, methamphetamine]					significantly induce	significantly induce	enhanced	increased blood levels	increased blood levels	increased blood levels		
CN1CCCC1c1cccnc1.O=C(O)C(O)C(O)C(=O)O (stereo not shown) [nicotine, Nicotine tartrate]							enhanced	increased blood levels	increased blood levels	increased blood levels	significantly increase	significantly increase
